Laboratory results taken from US20150335657A1, “Methods for Modulating Sirtuin Enzymes” (The Trustees of Princeton University, priority 2014, published 2015).

Assays:
[1] = biological target: T1, SIRT1 (Homo sapiens, UniProt Q96EB6); experiment: Sirtuin deacetylase enzyme activity assay (Cayman Chemical), compound screen; type: biochemical; conditions: compound at 50 μM; Z-score of change in fluorescent signal; + increase, − decrease
T1 construct: purchased Cayman Chemical
T1 sequence (Q96EB6 1-747): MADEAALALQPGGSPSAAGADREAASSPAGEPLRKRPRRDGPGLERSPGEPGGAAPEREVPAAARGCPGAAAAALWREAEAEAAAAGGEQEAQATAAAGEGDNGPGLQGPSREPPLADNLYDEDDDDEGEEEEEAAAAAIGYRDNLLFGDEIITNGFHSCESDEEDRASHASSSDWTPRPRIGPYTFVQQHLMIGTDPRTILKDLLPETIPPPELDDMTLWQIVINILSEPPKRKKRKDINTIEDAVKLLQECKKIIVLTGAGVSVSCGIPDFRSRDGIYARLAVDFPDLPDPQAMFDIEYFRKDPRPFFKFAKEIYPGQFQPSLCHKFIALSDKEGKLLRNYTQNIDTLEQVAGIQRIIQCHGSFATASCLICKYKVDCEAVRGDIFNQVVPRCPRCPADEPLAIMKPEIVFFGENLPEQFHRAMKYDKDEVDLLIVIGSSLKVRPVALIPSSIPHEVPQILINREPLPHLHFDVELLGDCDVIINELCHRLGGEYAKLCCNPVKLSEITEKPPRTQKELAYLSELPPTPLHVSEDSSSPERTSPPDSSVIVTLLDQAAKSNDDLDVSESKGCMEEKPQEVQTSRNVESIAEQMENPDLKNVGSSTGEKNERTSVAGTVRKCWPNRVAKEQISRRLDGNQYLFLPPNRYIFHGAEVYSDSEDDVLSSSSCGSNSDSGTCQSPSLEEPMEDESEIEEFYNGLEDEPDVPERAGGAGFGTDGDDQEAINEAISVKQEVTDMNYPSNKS
From the text: (§1) Sirtuins have been identified as innate viral restriction factors and it has been previously shown that drugs that modulate the activity of these enzymes block the production of multiple viruses in culture (see, e.g., WO 2012/106509). Sirtuins are NAD-dependent enzymes that regulate the activity of target proteins by post-translational modifications and thereby control key cellular events (see, e.g., Haigis and Sinclair (2010) Ann Rev Pathol Mech Dis 5:253-95). SIRT1, SIRT2, SIRT3 and SIRT6 have shown a detectable deacetylase activity in well-established biochemical assays that utilize recombinant SIRT1, SIRT2, SIRT3, and SIRT6 enzymes and fluorophore-conjugated acetyl-peptides. As described in the Examples below, the deacetylase activity of these sirtuins were used as a surrogate to identify compounds having broad-range antiviral activity.
(§2) A publically disclosed, small molecule library consisting of approximately 13,000 compounds was screened using a commercially available (Cayman Chemical) enzyme activity assay. Deacetylase activity of sirtuins SIRT1, SIRT2, SIRT3, and SIRT6 was used as a surrogate to identify compounds with the potential for having broad-range antiviral activity. The compounds were tested at a single concentration (50 μM) in microtiter plates and their activity against the four sirtuins was recorded as a change in fluorescent signal intensity. […] Activation of sirtuin activity generated positive Z-scores and inhibition of sirtuin activity produced negative Z-scores.

[2] = biological target: T2, SIRT2 (Homo sapiens, UniProt Q8IXJ6); experiment: as above; type: biochemical; conditions: compound at 50 μM; Z-score of change in fluorescent signal; + increase, − decrease
T2 construct: purchased Cayman Chemical
T2 sequence (Q8IXJ6 1-389): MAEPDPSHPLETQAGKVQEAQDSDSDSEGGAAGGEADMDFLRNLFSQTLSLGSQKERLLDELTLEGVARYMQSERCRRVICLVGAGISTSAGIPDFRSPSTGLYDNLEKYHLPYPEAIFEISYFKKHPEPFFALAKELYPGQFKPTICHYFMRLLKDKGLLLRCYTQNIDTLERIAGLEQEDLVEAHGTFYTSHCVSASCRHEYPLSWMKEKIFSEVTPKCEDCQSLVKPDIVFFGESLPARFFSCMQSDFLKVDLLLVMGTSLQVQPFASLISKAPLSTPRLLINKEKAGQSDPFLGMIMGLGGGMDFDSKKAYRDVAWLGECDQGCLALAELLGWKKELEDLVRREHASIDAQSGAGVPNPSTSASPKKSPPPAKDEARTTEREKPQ
From the text: as §1, §2

[3] = biological target: T3, SIRT3 (Homo sapiens, UniProt Q9NTG7); experiment: as above; type: biochemical; conditions: compound at 50 μM; Z-score of change in fluorescent signal; + increase, − decrease
T3 construct: purchased Cayman Chemical
T3 sequence (Q9NTG7 1-399): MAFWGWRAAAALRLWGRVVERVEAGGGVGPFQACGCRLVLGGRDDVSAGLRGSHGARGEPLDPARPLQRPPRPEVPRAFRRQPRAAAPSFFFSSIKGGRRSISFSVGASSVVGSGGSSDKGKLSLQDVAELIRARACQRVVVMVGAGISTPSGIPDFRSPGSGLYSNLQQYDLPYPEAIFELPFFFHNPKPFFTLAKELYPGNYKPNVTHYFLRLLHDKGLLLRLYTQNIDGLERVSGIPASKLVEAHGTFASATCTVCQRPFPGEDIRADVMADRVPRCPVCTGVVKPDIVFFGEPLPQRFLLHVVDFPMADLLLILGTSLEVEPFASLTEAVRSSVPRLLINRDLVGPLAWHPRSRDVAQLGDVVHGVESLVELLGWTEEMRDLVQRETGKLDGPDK
From the text: as §1, §2

[4] = biological target: T4, SIRT6 (Homo sapiens, UniProt Q8N6T7); experiment: as above; type: biochemical; conditions: compound at 50 μM; Z-score of change in fluorescent signal; + increase, − decrease
T4 construct: purchased Cayman Chemical
T4 sequence (Q8N6T7 whole entry): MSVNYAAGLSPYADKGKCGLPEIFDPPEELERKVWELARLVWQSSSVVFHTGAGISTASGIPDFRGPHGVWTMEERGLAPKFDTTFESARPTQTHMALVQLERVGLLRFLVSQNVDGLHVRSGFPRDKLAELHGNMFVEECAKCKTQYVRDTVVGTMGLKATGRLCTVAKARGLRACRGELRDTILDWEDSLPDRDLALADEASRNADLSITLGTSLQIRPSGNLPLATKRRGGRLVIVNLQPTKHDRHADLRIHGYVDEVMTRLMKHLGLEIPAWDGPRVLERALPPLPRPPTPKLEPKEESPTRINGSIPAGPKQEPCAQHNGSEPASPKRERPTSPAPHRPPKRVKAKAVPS
From the text: as §1, §2

[5] = test system: human cytomegalovirus (HCMV) AD169 strain; experiment: Antiviral activity against HCMV in MRC5 fibroblasts (virus yield, fluorescent focus assay); type: cell-based; conditions: Human betaherpesvirus 5, HCMV AD169, 1 infectious unit/cell, treated 2 h after infection, virus in medium at 96 h
[6] = Tetrazolium-based cell viability assay (cytotoxicity); conditions: human

Compound	SIRT1 (change in sirtuin deacetylase activity, Z-score class) [1]	SIRT2 (change in sirtuin deacetylase activity, Z-score class) [2]	SIRT3 (change in sirtuin deacetylase activity, Z-score class) [3]	SIRT6 (change in sirtuin deacetylase activity, Z-score class) [4]	IC50 [5]	IC90 [5]	CC50 at 96 h [6]
CC(c1ccccc1F)C(O)CNc1ccc(O)nc1 (centres unmarked)	na (−2 ≦ Z-score < 2 = no activity (na))	na (−2 ≦ Z-score < 2 = no activity (na))	+++ (Z-score ≧ 3 = +++)	+++ (Z-score ≧ 3 = +++)	19.4 µM	44 µM	> 50 µM
CC(c1cnc2ccccc2c1)C(F)CNc1cnc2ccccc2c1 (centres unmarked)	na (−2 ≦ Z-score < 2 = no activity (na))	na (−2 ≦ Z-score < 2 = no activity (na))	na (−2 ≦ Z-score < 2 = no activity (na))	+++ (Z-score ≧ 3 = +++)	6.89 µM	17.6 µM	> 50 µM
Cc1cc(-c2ccccc2)nn1C1CN(Cc2cccc(C(F)(F)F)c2)C(=O)C1C(C)C (centres unmarked)	++ (2 ≦ Z-score < 3 = ++)	na (−2 ≦ Z-score < 2 = no activity (na))	na (−2 ≦ Z-score < 2 = no activity (na))	++ (2 ≦ Z-score < 3 = ++)	8.43 µM	18.8 µM	25 to 50 µM
CC(c1ccnn1C)C(CN1CCN(C)CC1)Oc1ccc(C#N)cn1 (centres unmarked)	−− (−3 < Z-score ≦ −2 = −−)	na (−2 ≦ Z-score < 2 = no activity (na))	na (−2 ≦ Z-score < 2 = no activity (na))	+++ (Z-score ≧ 3 = +++)	21.1 µM	42.4 µM	> 50 µM
CCOc1cc(C(C)C)n(C(CNc2cnc3ccccc3c2)C(C)c2cccnc2C)n1 (centres unmarked)	+++ (Z-score ≧ 3 = +++)	na (−2 ≦ Z-score < 2 = no activity (na))	+++ (Z-score ≧ 3 = +++)	+++ (Z-score ≧ 3 = +++)	9.32 µM	41.3 µM	> 50 µM
CC(c1ccccc1Cl)C1CN(C2CCC(O)CC2)S(=O)(=O)c2c(F)cccc2O1 (centres unmarked)	na (−2 ≦ Z-score < 2 = no activity (na))	na (−2 ≦ Z-score < 2 = no activity (na))	na (−2 ≦ Z-score < 2 = no activity (na))	+++ (Z-score ≧ 3 = +++)	2.33 µM	31.3 µM	> 50 µM
CCOc1cc(C)n(C(CNc2cnc3ccccc3c2)C(C)c2cccnc2C)n1 (centres unmarked)	++ (2 ≦ Z-score < 3 = ++)	++ (2 ≦ Z-score < 3 = ++)	+++ (Z-score ≧ 3 = +++)	+++ (Z-score ≧ 3 = +++)	8.26 µM	33.9 µM	> 50 µM
CCN1CC(C(C)c2ccc(C)nc2)Oc2ccc(C(F)(F)F)cc2C1=O (centres unmarked)	na (−2 ≦ Z-score < 2 = no activity (na))	+++ (Z-score ≧ 3 = +++)	na (−2 ≦ Z-score < 2 = no activity (na))	na (−2 ≦ Z-score < 2 = no activity (na))	18.4 µM	42.3 µM	> 50 µM
CC(c1ccncc1)C(O)Cn1cc(-c2cc(Cl)cnc2N)nn1 (centres unmarked)	+++ (Z-score ≧ 3 = +++)	na (−2 ≦ Z-score < 2 = no activity (na))	++ (2 ≦ Z-score < 3 = ++)	+++ (Z-score ≧ 3 = +++)	9.71 µM	33.8 µM	> 50 µM
COc1ccc2[nH]cc(C(C)CCNc3cccnc3)c2c1 (centres unmarked)	na (−2 ≦ Z-score < 2 = no activity (na))	+++ (Z-score ≧ 3 = +++)	na (−2 ≦ Z-score < 2 = no activity (na))	na (−2 ≦ Z-score < 2 = no activity (na))	17.4 µM	46.5 µM	> 50 µM
CNC(=O)c1cccc(CN(CCC(C)C(C)C)S(=O)(=O)c2c(C)noc2C)c1 (centres unmarked)	na (−2 ≦ Z-score < 2 = no activity (na))	na (−2 ≦ Z-score < 2 = no activity (na))	na (−2 ≦ Z-score < 2 = no activity (na))	+++ (Z-score ≧ 3 = +++)	10.2 µM	32.8 µM	25 to 50 µM
Cc1nn(C2CN(CCn3ccnc3)C(=O)C2c2ccccc2)c(C)c1C (centres unmarked)	−−− (Z-score ≦ −3 = −−−)	−−− (Z-score ≦ −3 = −−−)	−−− (Z-score ≦ −3 = −−−)	na (−2 ≦ Z-score < 2 = no activity (na))	11 µM	38.5 µM	> 50 µM
CC(CCNc1cccnc1)c1c[nH]c2ccccc12 (centres unmarked)	na (−2 ≦ Z-score < 2 = no activity (na))	+++ (Z-score ≧ 3 = +++)	na (−2 ≦ Z-score < 2 = no activity (na))	na (−2 ≦ Z-score < 2 = no activity (na))	15.8 µM	43.1 µM	> 50 µM
Cc1ccccc1C(C)C(CO)NC(=O)c1cn(C)cn1 (centres unmarked)	−−− (Z-score ≦ −3 = −−−)	−−− (Z-score ≦ −3 = −−−)	na (−2 ≦ Z-score < 2 = no activity (na))	−− (−3 < Z-score ≦ −2 = −−)	15.8 µM	41.9 µM	> 50 µM
